# Measurements published in US11090304B2 (Amgen Inc., priority 2018, dated 2021).
# Biological target: GDP-bound KRAS protein (aa 1-169), containing both G12C and C118A amino acid substitutions (Homo sapiens, UniProt P01116, C118A/G12C)
# Test: Coupled nucleotide exchange assay (SOS-mediated, AlphaScreen)
# Format: biochemical
# Conditions: 5 min compound pre-incubation
# Chain of GDP-bound KRAS protein (aa 1-169), containing both G12C and C118A amino acid substitutions (P01116 1-169 isoform P01116-2 G12C/C118A): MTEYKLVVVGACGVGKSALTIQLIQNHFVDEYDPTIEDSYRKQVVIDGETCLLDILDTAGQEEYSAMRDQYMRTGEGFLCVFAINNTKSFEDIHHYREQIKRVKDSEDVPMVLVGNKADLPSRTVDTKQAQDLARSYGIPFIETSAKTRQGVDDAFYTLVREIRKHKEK
row,Compound,Coupled exchange IC50 (5 min)
1,"C=CC(=O)N1CCN(c2nc(=O)n(-c3c(C)cnn3C(C)(C)C)c3nc(-c4ccccc4F)c(Cl)cc23)[C@@H](C)C1 (single isomer, unassigned) [Example 55-38-1]",0.534 | nda μM
2,"C=CC(=O)N1CCN(c2nc(=O)n(-c3c(C)ncnc3C(C)C)c3nc(-c4cc(F)ccc4F)c(Cl)cc23)[C@@H](C)C1 (single isomer, unassigned) [Example 55-39-1]",1.795 | nda μM
3,"C=CC(=O)N1CCN(c2nc(=O)n(-c3c(C)ncnc3C(C)C)c3nc(-c4cc(C)ccc4F)c(Cl)cc23)[C@@H](C)C1 (single isomer, unassigned) [Example 55-40-1]",1.02 | nda μM
4,"C=CC(=O)N1CCN(c2nc(=O)n(-c3c(CO)cccc3C(C)C)c3nc(-c4ccccc4F)c(Cl)cc23)[C@@H](C)C1 (single isomer, unassigned) [Example 55-43-1]",2.87 | nda μM
5,"C=CC(=O)N1CCN(c2nc(=O)n(-c3ccccc3S(F)(F)(F)(F)F)c3nc(-c4c(O)cccc4F)c(Cl)cc23)[C@@H](C)C1 (single isomer, unassigned) [Example 56-1-1]",5.29 | nda μM
6,"C=CC(=O)N1CCN(c2nc(=O)n(-c3c(C)ccnc3CC)c3nc(-c4c(O)cccc4F)c(F)cc23)[C@@H](C)C1 (single isomer, unassigned) [Example 57-1-2]",2.47 | nda μM
7,"C=CC(=O)N1CCN(c2nc(=O)n(-c3ccccc3C(C)C)c3nc(-c4ccccc4F)c(F)cc23)[C@@H](C)C1 (single isomer, unassigned) [Example 57-7-1]",8.89 | nda μM
8,"C=CC(=O)N1CCN(c2nc(=O)n(-c3c(C)cccc3CC)c3nc(-c4ccccc4F)c(F)cc23)[C@@H](C)C1 (single isomer, unassigned) [Example 57-13-1]",1.46 | nda μM
9,"C=CC(=O)N1CCN(c2nc(=O)n(-c3c(C)cccc3CC)c3nc(-c4ccccc4F)c(F)cc23)[C@@H](C)C1 (single isomer, unassigned) [Example 57-13-2]",8.13 | nda μM
10,"C=CC(=O)N1CCN(c2nc(=O)n(-c3c(C)cccc3CC)c3nc(-c4c(O)cccc4F)c(F)cc23)[C@@H](C)C1 (single isomer, unassigned) [Example 57-14-2]",1.8 | nda μM
11,"C=CC(=O)N1CCN(c2nc(=O)n(-c3c(C)ccnc3CC)c3nc(-c4ccccc4F)c(F)cc23)[C@@H](C)C1 (single isomer, unassigned) [Example 57-16-1]",1.76 | nda μM
12,"C=CC(=O)N1CCN(c2nc(=O)n(-c3c(C)ccnc3CC)c3nc(-c4ccccc4F)c(F)cc23)[C@@H](C)C1 (single isomer, unassigned) [Example 57-16-2]",7.56 | nda μM
13,"C=CC(=O)N1CCN(c2nc(=O)n(-c3c(C)cccc3C(C)(C)C)c3nc(-c4c(O)cccc4F)c(F)cc23)[C@@H](C)C1 (single isomer, unassigned) [Example 57-17-2]",3.9 | nda μM
14,"C=CC(=O)N1CCN(c2nc(=O)n(-c3ccccc3C(C)(C)C)c3nc(-c4c(O)cccc4F)c(F)cc23)[C@@H](C)C1 (single isomer, unassigned) [Example 58-1-1]",5.95 | nda μM
15,"C=CC(=O)N1CCN(c2nc(=O)n(-c3c(C)ccnc3C(C)C)c3nc(-c4ccccc4F)c(F)cc23)[C@@H](C)C1 (single isomer, unassigned) [Example 58-4-2]",4.82 | nda μM
16,"C=CC(=O)N1CCN(c2nc(=O)n(-c3c(C)ccnc3C(C)C)c3nc(-c4cc(O)ccc4F)c(F)cc23)[C@@H](C)C1 (single isomer, unassigned) [Example 58-5-1]",5.6 | nda μM
17,"C=CC(=O)N1CCN(c2nc(=O)n(-c3c(C)ccnc3C(C)C)c3nc(-c4cc(N)ccc4F)c(F)cc23)[C@@H](C)C1 (single isomer, unassigned) [Example 58-6-1]",8.63 | nda μM
18,"C=CC(=O)N1CCN(c2nc(=O)n(-c3c(C)ccnc3C(C)C)c3nc(-c4cc(N)ccc4Cl)c(F)cc23)[C@@H](C)C1 (single isomer, unassigned) [Example 58-8-2]",2.02 | nda μM
19,"C=CC(=O)N1CCN(c2nc(=O)n(-c3c(C)ccnc3C(C)C)c3nc(-c4ccc(F)cc4F)c(F)cc23)[C@@H](C)C1 (single isomer, unassigned) [Example 58-10-2]",6.31 | nda μM
20,"C=CC(=O)N1CCN(c2nc(=O)n(-c3c(C)cccc3C3CC3)c3nc(-c4c(O)cccc4F)c(F)cc23)[C@@H](C)C1 (single isomer, unassigned) [Example 58-13-1]",1.56 | nda μM
21,"C=CC(=O)N1CCN(c2nc(=O)n(-c3c(C(C)C)ccnc3C)c3nc(-c4ccccc4F)c(F)cc23)[C@@H](C)C1 (single isomer, unassigned) [Example 58-16-1]",11.6 | nda μM
22,"C=CC(=O)N1CCN(c2nc(=O)n(-c3ccccc3C(C)(C)C)c3nc(-c4ccccc4F)c(F)cc23)[C@@H](C)C1 (single isomer, unassigned) [Example 58-17-1]",33.2 | nda μM
23,"C=CC(=O)N1CCN(c2nc(=O)n(-c3c(C4CC4)ccnc3C)c3nc(-c4c(O)cccc4F)c(F)cc23)[C@@H](C)C1 (single isomer, unassigned) [Example 58-19-1]",4.06 | nda μM
24,"C=CC(=O)N1CCN(c2nc(=O)n(-c3c(C4CC4)ccnc3C)c3nc(-c4ccccc4F)c(F)cc23)[C@@H](C)C1 (single isomer, unassigned) [Example 58-20-1]",16.2 | nda μM
25,"C=CC(=O)N1CCN(c2nc(=O)n(-c3ccccc3C3(C(F)(F)F)CC3)c3nc(-c4c(O)cccc4F)c(F)cc23)[C@@H](C)C1 (single isomer, unassigned) [Example 59-1-1]",11.8 | nda μM
26,"C=CC(=O)N1CCN(c2nc(=O)n(-c3ccccc3C3(C(F)(F)F)CC3)c3nc(-c4c(O)cccc4F)c(F)cc23)[C@@H](C)C1 (single isomer, unassigned) [Example 59-1-2]",1.1 | nda μM
27,"C=CC(=O)N1CCN(c2nc(=O)n(-c3c(F)cccc3C(C)C)c3nc(-c4c(O)cccc4F)c(F)cc23)[C@@H](C)C1 (single isomer, unassigned) [Example 59-2-2]",7.49 | nda μM
28,"C=CC(=O)N1CCN(c2nc(=O)n(-c3c(F)cccc3C(C)C)c3nc(-c4ccccc4F)c(F)cc23)[C@@H](C)C1 (single isomer, unassigned) [Example 59-3-2]",33 | nda μM
29,"C=CC(=O)N1CCN(c2nc(=O)n(-c3c(C#N)cccc3C(C)C)c3nc(-c4ccccc4F)c(Cl)cc23)[C@@H](C)C1 (single isomer, unassigned) [Example 60-20-1]",10.2 | nda μM
30,"C=CC(=O)N1CCN(c2nc(=O)n(-c3c(C)ncnc3C3CC3)c3nc(-c4ccccc4F)c(Cl)cc23)[C@@H](C)C1 (single isomer, unassigned) [Example 60-30-1]",1.26 | nda μM
